In patent publication US20240246964A1 (Arbutus Biopharma Corporation, priority 2021, published 2024):

Target: human PD-L1 (Homo sapiens (Human), UniProt Q9NZQ7)
Assay: T cell activation luciferase reporter cell culture system (T Cell Activation Assay)
Type: cell-based
Conditions: luciferase reporter assay; PD-L1 aAPC/CHO-K1 cells with PD-1 effector Jurkat T cells

Chain of human PD-L1 (Q9NZQ7 19-290): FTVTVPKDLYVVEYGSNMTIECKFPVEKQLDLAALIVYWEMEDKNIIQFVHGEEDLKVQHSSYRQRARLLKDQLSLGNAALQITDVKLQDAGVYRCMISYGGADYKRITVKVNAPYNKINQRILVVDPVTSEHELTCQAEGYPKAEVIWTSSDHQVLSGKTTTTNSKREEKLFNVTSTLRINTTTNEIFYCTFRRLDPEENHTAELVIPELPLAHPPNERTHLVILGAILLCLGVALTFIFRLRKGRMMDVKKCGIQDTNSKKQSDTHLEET

EC50	SMILES
37.8 nM	COc1cc(-c2nccc(-c3cccc(-c4ccc(CNC5CCOCC5)c(OC)n4)c3Cl)c2C#N)ccc1CNC1CCOCC1 [Example 434, 4-(2-Chloro-3-(6-methoxy-5-(((tetrahydro-2H-pyran-4-yl)amino)methyl)pyridin-2-yl)phenyl)-2-(3-methoxy-4-(((tetrahydro-2H-pyran-4-yl)amino)methyl)phenyl)nicotinonitrile]
70.5 nM	COc1cc(-c2nccc(-c3cccc(-c4ccc(CNC5CCN(C(=O)C(C)C)CC5)c(OC)n4)c3Cl)c2Cl)ccc1CNC1CCN(C(=O)C(C)C)CC1 [Example 346, 1-(4-(((6-(2-Chloro-3-(3-chloro-2-(4-(((1-isobutyrylpiperidin-4-yl)amino)methyl)-3-methoxyphenyl)pyridin-4-yl)phenyl)-2-methoxypyridin-3-yl)methyl)amino)piperidin-1-yl)-2-methylpropan-1-one]
87.6 nM	COc1nc(-c2cccc(-c3ccnc(-c4ccn5c(=O)c(CNC[C@@H]6CCC(=O)N6)cnc5c4)c3Cl)c2Cl)ccc1CNC[C@@H]1CCC(=O)N1 [Cmpd 2, 8-(3-chloro-4-(2-chloro-3-(6-methoxy-5-(((((S)-5-oxopyrrolidin-2-yl)methyl)amino)methyl)pyridin-2-yl)phenyl)pyridin-2-yl)-3-(((((S)-5-oxopyrrolidin-2-yl)methyl)amino)methyl)-4H-pyrido[1,2-a]pyrimidin-4-one]
32.3 nM	COc1cc(-c2nccc(-c3cccc(-c4ccc(CNC5CCN(C(=O)C6CC6)CC5)c(OC)n4)c3Cl)c2Cl)ccc1CNC1CCN(C(=O)C2CC2)CC1 [Example 345, (4-(((6-(2-Chloro-3-(3-chloro-2-(4-(((1-(cyclopropanecarbonyl)piperidin-4-yl)amino)methyl)-3-methoxyphenyl)pyridin-4-yl)phenyl)-2-methoxypyridin-3-yl)methyl)amino)piperidin-1-yl)(cyclopropyl)methanone]
36.3 nM	COc1cc(-c2nccc(-c3cccc(-c4cc(Cl)c(CNC[C@@H]5CCC(=O)N5)c(OC)n4)c3Cl)c2Cl)cc2c1CN(CCO)CC2 [Cmpd 124, (S)-5-((((4-chloro-6-(2-chloro-3-(3-chloro-2-(2-(2-hydroxyethyl)-8-methoxy-1,2,3,4-tetrahydroisoquinolin-6-yl)pyridin-4-yl)phenyl)-2-methoxypyridin-3-yl)methyl)amino)methyl)pyrrolidin-2-one]
66.2 nM	COc1cc(-c2nccc(-c3cccc(-c4ccc(CNC[C@@H]5CCC(=O)N5)c(OC)n4)c3Cl)c2Cl)cc(F)c1CNCC(C)C [Cmpd 83, (S)-5-((((6-(2-chloro-3-(3-chloro-2-(3-fluoro-4-((isobutylamino)methyl)-5-methoxyphenyl)pyridin-4-yl)phenyl)-2-methoxypyridin-3-yl)methyl)amino)methyl)pyrrolidin-2-one]
23 nM	COc1cc(-c2nccc(-c3cccc(-c4ccc(CNC[C@@H]5CCC(=O)N5)c(OC)n4)c3Cl)c2Cl)cc2c1CN(C[C@H]1C[C@@H](O)C1)CC2 [Cmpd 134]
203 nM	COc1nc(-c2cccc(-c3ccnc(-c4cc(OC)c5nc(CN6CC7(CCC(=O)N7)C6)cn5c4)c3Cl)c2Cl)ccc1CN1CC2(CCC(=O)N2)C1 [Example 454, 2-((6-(2-Chloro-3-(3-chloro-2-(8-methoxy-2-((6-oxo-2,5-diazaspiro[3.4]octan-2-yl)methyl)imidazo[1,2-a]pyridin-6-yl)pyridin-4-yl)phenyl)-2-methoxypyridin-3-yl)methyl)-2,5-diazaspiro[3.4]octan-6-one]
134 nM	COc1cc(-c2nccc(-c3cccc(-c4ccc(CNC5CCN(C(=O)C6CCC6)CC5)c(OC)n4)c3Cl)c2Cl)ccc1CNC1CCN(C(=O)C2CCC2)CC1 [Example 352, (4-(((6-(2-Chloro-3-(3-chloro-2-(4-(((1-(cyclobutanecarbonyl)piperidin-4-yl)amino)methyl)-3-methoxyphenyl)pyridin-4-yl)phenyl)-2-methoxypyridin-3-yl)methyl)amino)piperidin-1-yl)(cyclobutyl)methanone]
31 nM	COc1cc(-c2nccc(-c3cccc(-c4ccc(CNC5CCN(C(C)=O)CC5)c(OC)n4)c3Cl)c2Cl)ccc1CN[C@H]1CC[C@H](O)CC1 [Example 360, 1-(4-(((6-(2-Chloro-3-(3-chloro-2-(4-((((1r,4r)-4-hydroxycyclohexyl)amino)methyl)-3-methoxyphenyl)pyridin-4-yl)phenyl)-2-methoxypyridin-3-yl)methyl)amino)piperidin-1-yl)ethan-1-one]
35.8 nM	COc1cc(-c2nccc(-c3cccc(-c4ccc(CNCCC(=O)O)c(OC)n4)c3Cl)c2Cl)ccc1CNC1CCN(C(C)=O)CC1 [Cmpd 389, 3-(((6-(3-(2-(4-(((1-acetylpiperidin-4-yl)amino)methyl)-3-methoxyphenyl)-3-chloropyridin-4-yl)-2-chlorophenyl)-2-methoxypyridin-3-yl)methyl)amino)propanoic acid]
8.63 nM	COc1cc(-c2nccc(-c3cccc(-c4ccc(CN5CC6(CC(O)C6)C5)c(OC)n4)c3Cl)c2Cl)ccc1CN1CC2(CNC(=O)C2)C1 [Example 521, 2-(4-(3-Chloro-4-(2-chloro-3-(5-((6-hydroxy-2-azaspiro[3.3]heptan-2-yl)methyl)-6-methoxypyridin-2-yl)phenyl)pyridin-2-yl)-2-methoxybenzyl)-2,6-diazaspiro[3.4]octan-7-one]
818 nM	COc1nc(-c2cncc(-c3cccc(NC(=O)c4cn(C)c(=O)n(C)c4=O)c3Cl)c2Cl)ccc1CN1CC2(CNC(=O)C2)C1 [Compound 722, N-(2-Chloro-3-(4′-chloro-6-methoxy-5-((7-oxo-2,6-diazaspiro[3.4]octan-2-yl)methyl)-[2,3′-bipyridin]-5′-yl)phenyl)-1,3-dimethyl-2,4-dioxo-1,2,3,4-tetrahydropyrimidine-5-carboxamide]
89.1 nM	COc1nc(-c2cncc(-c3cccc(NC(=O)c4cn(C)c(=O)n(C)c4=O)c3Cl)c2Cl)ccc1CNC[C@@H]1CCC(=O)N1 [Compound 712, (S)—N-(2-Chloro-3-(4′-chloro-6-methoxy-5-((((5-oxopyrrolidin-2-yl)methyl)amino)methyl)-[2,3′-bipyridin]-5′-yl)phenyl)-1,3-dimethyl-2,4-dioxo-1,2,3,4-tetrahydropyrimidine-5-carboxamide]
86.4 nM	COc1cc(-c2ncnc(-c3cccc(-c4ccc(CN[C@H]5C[C@@H](O)C5)c(OC)n4)c3Cl)c2Cl)ccc1CN[C@H]1C[C@@H](O)C1 [Example 592, (1s,3s)-3-(((6-(2-Chloro-3-(5-chloro-6-(4-((((1s,3s)-3-hydroxycyclobutyl)amino)methyl)-3-methoxyphenyl)pyrimidin-4-yl)phenyl)-2-methoxypyridin-3-yl)methyl)amino)cyclobutan-1-ol]
61.4 nM	COc1nc(-c2cccc(-c3ccnc(-c4ccc5c(c4)N(C)CCN(C[C@@H]4CCC(=O)N4)C5)c3Cl)c2Cl)ccc1CNC[C@@H]1CCC(=O)N1 [Cmpd 19, (S)-5-((((6-(2-chloro-3-(3-chloro-2-(1-methyl-4-(((S)-5-oxopyrrolidin-2-yl)methyl)-2,3,4,5-tetrahydro-1H-benzo[e][1,4]diazepin-8-yl)pyridin-4-yl)phenyl)-2-methoxypyridin-3-yl)methyl)amino)methyl)pyrrolidin-2-one]
